Results from ChEMBL document CHEMBL1201862, “PubChem BioAssay data set” (2004).
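In this assay, cells in 96-well plates receive the compound at five concentrations for 48 hours. Endpoints are linearly interpolated between the surrounding concentrations. At the GI50, growth is halved.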 Active and inactive are the calls of the source. No stated cut-off is given here; in the data, active = GI50 up to about 1.1 µM and inactive = higher.

Key:
Experiment in all cases: NCI anticancer screen, dose series, 48 h
HCT-116 = system: HCT-116
UACC-62 = system: UACC-62
NCI/ADR-RES = system: NCI/ADR-RES
HCT-15 = system: HCT-15
HL-60 = system: HL-60
SN12C = system: SN12C
U-251 = system: U-251
SK-MEL-2 = system: SK-MEL-2
TK-10 = system: TK-10
HCC 2998 = system: HCC 2998
OVCAR-5 = system: OVCAR-5
RPMI-8226 = system: RPMI-8226
HT-29 = system: HT-29
NCI-H522 = system: NCI-H522
ACHN = system: ACHN
NCI-H460 = system: NCI-H460
SK-OV-3 = system: SK-OV-3
SNB-75 = system: SNB-75
CCRF-CEM = system: CCRF-CEM
CAKI-1 = system: CAKI-1

For `CCN1c2ccccc2NC(=S)c2c(-c3ccccc3)n[nH]c21`, the GI50 (HCT-116) was 33.2 µM (inactive), the GI50 (UACC-62) was 27.3 µM (inactive) and the GI50 (NCI/ADR-RES) was 23.1 µM (inactive). The GI50 (HCT-15) was 23 µM, the GI50 (HL-60) was 13.6 µM (inactive) and the GI50 (SN12C) was 43.5 µM (inactive). The GI50 (U-251) was 20.9 µM (inactive), the GI50 (SK-MEL-2) was 25.3 µM (inactive) and the GI50 (TK-10) was 48.4 µM (inactive). For the same compound, the GI50 (HCC 2998) was 3.99 µM (inactive), the GI50 (OVCAR-5) was 56.4 µM (inactive) and the GI50 (RPMI-8226) was 16.1 µM (inactive). The GI50 (HT-29) was 42.7 µM (inactive), the GI50 (NCI-H522) was 21 µM (inactive) and the GI50 (ACHN) was 37.2 µM (inactive). The GI50 (NCI-H460) was 28.6 µM (inactive), the GI50 (SK-OV-3) was 34 µM (inactive) and the GI50 (SNB-75) was 55.7 µM (inactive). The GI50 (CCRF-CEM) was 18.3 µM (inactive) and the GI50 (CAKI-1) was 52.8 µM (inactive).
